Literature values in patent publication US9062086B2, “N-acetyl L-cysteine chelates and methods for making and using the same” (Viva Pharmaceutical, Inc., priority 2013, dated 2015).

Key:
[1] = biological target: c-Glutamylcysteine synthetase (Homo sapiens, UniProt P48506); conditions: read-out: Ki (feedback inhibition by GSH); background statement
[2] = much higher than NAC; background statement

Chain of c-Glutamylcysteine synthetase (P48506 whole entry): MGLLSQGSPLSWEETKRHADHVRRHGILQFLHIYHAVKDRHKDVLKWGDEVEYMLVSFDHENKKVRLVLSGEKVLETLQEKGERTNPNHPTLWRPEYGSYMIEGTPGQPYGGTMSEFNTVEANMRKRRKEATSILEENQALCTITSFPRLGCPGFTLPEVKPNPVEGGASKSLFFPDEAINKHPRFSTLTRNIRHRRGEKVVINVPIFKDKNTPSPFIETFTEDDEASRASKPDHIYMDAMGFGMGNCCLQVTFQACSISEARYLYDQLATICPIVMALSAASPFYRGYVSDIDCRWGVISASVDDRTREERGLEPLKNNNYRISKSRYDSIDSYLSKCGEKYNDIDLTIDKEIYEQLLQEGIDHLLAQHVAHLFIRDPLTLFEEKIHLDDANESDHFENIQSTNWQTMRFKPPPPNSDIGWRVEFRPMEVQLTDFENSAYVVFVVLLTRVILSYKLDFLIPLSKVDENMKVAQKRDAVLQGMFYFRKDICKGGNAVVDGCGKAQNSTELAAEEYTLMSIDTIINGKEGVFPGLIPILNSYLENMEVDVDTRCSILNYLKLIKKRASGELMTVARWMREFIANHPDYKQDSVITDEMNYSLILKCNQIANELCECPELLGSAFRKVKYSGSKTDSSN

Compound	Ki [1] [µM]	bioavailability [2]
N[C@@H](CCC(=O)N[C@@H](CS)C(=O)NCC(=O)O)C(=O)O [GSH, glutathione]	~1500	
CCOC(=O)[C@H](CS)NC(C)=O [NACET, N-acetylcysteine ethyl ester]		around 60%
